# Patent publication US10597388B2, “Pyridazinone herbicides” (FMC CORPORATION, priority 2014, dated 2020)
# What was measured:
# Experiment in all cases: Test C greenhouse herbicide test, pre- and postemergence
# Assay type in all cases: in vivo
# [1] = tested on: pigweed (Amaranthus retroflexus)
# Text: (§1) Seeds of plant species selected from blackgrass (Alopecurus myosuroides), ryegrass, Italian (Italian ryegrass, Lolium multiflorum), wheat (winter wheat, Triticum aestivum), galium (catchweed bedstraw, Galium aparine), corn (Zea mays), large crabgrass, large (large crabgrass, Digitaria sanguinalis), foxtail, giant (giant foxtail, Setaria faberii), johnsongrass (Sorghum halepense), lambsquarters (Chenopodium album), morningglory (Ipomoea coccinea), nutsedge, yellow (yellow nutsedge, Cyperus esculentus), pigweed (Amaranthus retroflexus), ragweed (common ragweed, Ambrosia elatior), soybean (Glycine max), barnyardgrass (Echinochloa crus-galli), oilseed rape (Brassica napus), waterhemp (common waterhemp, Amaranthus rudis), and velvetleaf (Abutilon theophrasti) were planted into a blend of loam soil and sand and treated preemergence with test chemicals formulated in a non-phytotoxic solvent mixture which included a surfactant.
# (§2) At the same time, plants selected from these crop and weed species and also chickweed (common chickweed, Stellaria media), kochia (Kochia scoparia), and oat, wild (wild oat, Avena fatua), were planted in pots containing Redi-Earth® planting medium (Scotts Company, 14111 Scottslawn Road, Marysville, Ohio 43041) comprising spaghnum peat moss, vermiculite, wetting agent and starter nutrients and treated with postemergence applications of test chemicals formulated in the same manner. Plants ranged in height from 2 to 18 cm (1- to 4-leaf stage) for postemergence treatments. Treated plants and controls were maintained in a greenhouse for 13 to 15 d, after which time all species were compared to controls and visually evaluated. Plant response ratings, summarized in Table C, are based on a scale of 0 to 100 where 0 is no effect and 100 is complete control. A dash (-) response means no test result.
# [2] = tested on: waterhemp (common waterhemp, Amaranthus rudis)
# Text: as §1, §2
# [3] = tested on: ragweed (common ragweed, Ambrosia elatior)
# Text: as §1, §2
# [4] = tested on: barnyardgrass (Echinochloa crus-galli)
# Text: as §1, §2
# [5] = tested on: galium (catchweed bedstraw, Galium aparine)
# Text: as §1, §2
# [6] = tested on: foxtail, giant (giant foxtail, Setaria faberii)
# Text: as §1, §2
# corn (Zea mays) = tested on: corn (Zea mays)
# Text: as §1, §2
# [7] = tested on: velvetleaf (Abutilon theophrasti)
# Text: as §1, §2
# [8] = tested on: oilseed rape (Brassica napus)
# Text: as §1, §2
# [9] = tested on: ryegrass, Italian (Italian ryegrass, Lolium multiflorum)
# Text: as §1, §2
# [10] = tested on: crabgrass, large (large crabgrass, Digitaria sanguinalis)
# Text: as §1, §2
# [11] = tested on: nutsedge, yellow (yellow nutsedge, Cyperus esculentus)
# Text: as §1, §2
# [12] = tested on: johnsongrass (Sorghum halepense)
# Text: as §1, §2
# [13] = tested on: lambsquarters (Chenopodium album)
# Text: as §1, §2
# [14] = tested on: morningglory (Ipomoea coccinea)
# Text: as §1, §2
# [15] = tested on: blackgrass (Alopecurus myosuroides)
# Text: as §1, §2
# [16] = Postemergence, 31 g ai/ha, 0 to 100 scale (0 no effect, 100 complete control)
# [17] = Postemergence, 125 g ai/ha, scale 0 to 100, 0 is no effect, 100 is complete control
# [18] = Postemergence, 250 g ai/ha, scale 0 to 100, 0 no effect, 100 complete control, 13 to 15 d
# [19] = Preemergence, 31 g ai/ha, scale 0 to 100, 0 is no effect, 100 is complete control
# [20] = Preemergence, 62 g ai/ha, scale 0 to 100, 0 is no effect, 100 is complete control
# [21] = Preemergence, 125 g ai/ha, scale 0 to 100, 0 is no effect, 100 is complete control
# [22] = Preemergence, 250 g ai/ha, scale 0 to 100 (0 no effect, 100 complete control)
# [23] = postemergence, 62 g ai/ha, scale 0 to 100, 0 no effect, 100 complete control
structure (smiles),measurement,setting,value
COc1nn(C)c(=O)c(-c2c(C)ccc3ccccc23)c1OC(=O)OC(C)C [Compound 36],Pigweed plant response rating,[1]; [16],70
same,"Plant response rating, Pigweed",[1]; [17],95
same,"Plant response rating, Pigweed",[1]; [18],100
same,"Plant response rating, Pigweed",[1]; [19],90
same,"Plant response rating, Pigweed",[1]; [20],100
same,"Plant response rating, Pigweed",[1]; [21],100
same,Pigweed plant response rating,[1]; [22],100
same,Pigweed plant response rating,[1]; [23],85
same,Waterhemp plant response rating,[2]; [16],85
same,"Plant response rating, Waterhemp",[2]; [17],95
same,"Plant response rating, Waterhemp",[2]; [18],98
same,"Plant response rating, Waterhemp",[2]; [19],100
same,"Plant response rating, Waterhemp",[2]; [20],100
same,"Plant response rating, Waterhemp",[2]; [21],100
same,Waterhemp plant response rating,[2]; [22],100
same,Waterhemp plant response rating,[2]; [23],95
same,Ragweed plant response rating,[3]; [16],90
same,"Plant response rating, Ragweed",[3]; [17],95
same,"Plant response rating, Ragweed",[3]; [18],95
same,"Plant response rating, Ragweed",[3]; [19],85
same,"Plant response rating, Ragweed",[3]; [20],90
same,"Plant response rating, Ragweed",[3]; [21],95
same,Ragweed plant response rating,[3]; [22],95
same,Ragweed plant response rating,[3]; [23],90
same,Barnyardgrass plant response rating,[4]; [16],15
same,"Plant response rating, Barnyardgrass",[4]; [17],35
same,"Plant response rating, Barnyardgrass",[4]; [18],40
same,"Plant response rating, Barnyardgrass",[4]; [19],10
same,"Plant response rating, Barnyardgrass",[4]; [20],25
same,"Plant response rating, Barnyardgrass",[4]; [21],65
same,Barnyardgrass plant response rating,[4]; [22],70
same,Barnyardgrass plant response rating,[4]; [23],25
same,Galium plant response rating,[5]; [16],90
same,"Plant response rating, Galium",[5]; [17],95
same,"Plant response rating, Galium",[5]; [18],95
same,"Plant response rating, Galium",[5]; [19],100
same,"Plant response rating, Galium",[5]; [20],100
same,"Plant response rating, Galium",[5]; [21],100
same,Galium plant response rating,[5]; [22],100
same,Galium plant response rating,[5]; [23],95
same,"Foxtail, Giant plant response rating",[6]; [16],30
same,"Plant response rating, Foxtail, Giant",[6]; [17],70
same,"Plant response rating, Foxtail, Giant",[6]; [18],80
same,"Plant response rating, Foxtail, Giant",[6]; [19],75
same,"Plant response rating, Foxtail, Giant",[6]; [20],75
same,"Plant response rating, Foxtail, Giant",[6]; [21],85
same,"Foxtail, Giant plant response rating",[6]; [22],85
same,"Foxtail, Giant plant response rating",[6]; [23],55
same,Corn plant response rating,corn (Zea mays); [16],0
same,"Plant response rating, Corn",corn (Zea mays); [17],5
same,"Plant response rating, Corn",corn (Zea mays); [18],5
same,"Plant response rating, Corn",corn (Zea mays); [19],0
same,"Plant response rating, Corn",corn (Zea mays); [20],0
same,"Plant response rating, Corn",corn (Zea mays); [21],0
same,Corn plant response rating,corn (Zea mays); [22],0
same,Corn plant response rating,corn (Zea mays); [23],0
same,Velvetleaf plant response rating,[7]; [16],65
same,"Plant response rating, Velvetleaf",[7]; [17],95
same,"Plant response rating, Velvetleaf",[7]; [18],95
same,"Plant response rating, Velvetleaf",[7]; [19],55
same,"Plant response rating, Velvetleaf",[7]; [20],80
same,"Plant response rating, Velvetleaf",[7]; [21],85
same,Velvetleaf plant response rating,[7]; [22],90
same,Velvetleaf plant response rating,[7]; [23],85
same,Oilseed Rape plant response rating,[8]; [16],40
same,"Plant response rating, Oilseed Rape",[8]; [17],50
same,"Plant response rating, Oilseed Rape",[8]; [18],90
same,"Plant response rating, Oilseed Rape",[8]; [19],50
same,"Plant response rating, Oilseed Rape",[8]; [20],60
same,"Plant response rating, Oilseed Rape",[8]; [21],60
same,Oilseed Rape plant response rating,[8]; [22],95
same,Oilseed Rape plant response rating,[8]; [23],40
same,"Ryegrass, Italian plant response rating",[9]; [16],55
same,"Plant response rating, Ryegrass, Italian",[9]; [17],60
same,"Plant response rating, Ryegrass, Italian",[9]; [18],80
same,"Plant response rating, Ryegrass, Italian",[9]; [19],30
same,"Plant response rating, Ryegrass, Italian",[9]; [20],30
same,"Plant response rating, Ryegrass, Italian",[9]; [21],35
same,"Ryegrass, Italian plant response rating",[9]; [22],85
same,"Ryegrass, Italian plant response rating",[9]; [23],60
same,"Crabgrass, Large plant response rating",[10]; [16],25
same,"Plant response rating, Crabgrass, Large",[10]; [17],25
same,"Plant response rating, Crabgrass, Large",[10]; [18],35
same,"Plant response rating, Crabgrass, Large",[10]; [19],70
same,"Plant response rating, Crabgrass, Large",[10]; [20],20
same,"Plant response rating, Crabgrass, Large",[10]; [21],20
same,"Crabgrass, Large plant response rating",[10]; [22],65
same,"Crabgrass, Large plant response rating",[10]; [23],30
same,"Nutsedge, Yellow plant response rating",[11]; [16],20
same,"Plant response rating, Nutsedge, Yellow",[11]; [17],55
same,"Plant response rating, Nutsedge, Yellow",[11]; [18],65
same,"Plant response rating, Nutsedge, Yellow",[11]; [19],10
same,"Plant response rating, Nutsedge, Yellow",[11]; [20],20
same,"Plant response rating, Nutsedge, Yellow",[11]; [21],20
same,"Nutsedge, Yellow plant response rating",[11]; [22],65
same,"Nutsedge, Yellow plant response rating",[11]; [23],40
same,Johnsongrass plant response rating,[12]; [16],0
same,"Plant response rating, Johnsongrass",[12]; [17],5
same,"Plant response rating, Johnsongrass",[12]; [18],5
same,"Plant response rating, Johnsongrass",[12]; [19],0
same,"Plant response rating, Johnsongrass",[12]; [20],5
same,"Plant response rating, Johnsongrass",[12]; [21],5
same,Johnsongrass plant response rating,[12]; [22],5
same,Johnsongrass plant response rating,[12]; [23],5
same,Lambsquarters plant response rating,[13]; [16],90
same,"Plant response rating, Lambsquarters",[13]; [17],98
same,"Plant response rating, Lambsquarters",[13]; [18],100
same,"Plant response rating, Lambsquarters",[13]; [19],70
same,"Plant response rating, Lambsquarters",[13]; [20],80
same,"Plant response rating, Lambsquarters",[13]; [21],85
same,Lambsquarters plant response rating,[13]; [22],80
same,Lambsquarters plant response rating,[13]; [23],98
same,Morningglory plant response rating,[14]; [16],90
same,"Plant response rating, Morningglory",[14]; [17],98
same,"Plant response rating, Morningglory",[14]; [18],100
same,"Plant response rating, Morningglory",[14]; [19],80
same,"Plant response rating, Morningglory",[14]; [20],80
same,"Plant response rating, Morningglory",[14]; [21],90
same,Morningglory plant response rating,[14]; [22],95
same,Morningglory plant response rating,[14]; [23],98
same,Blackgrass plant response rating,[15]; [16],5
same,"Plant response rating, Blackgrass",[15]; [17],5
same,"Plant response rating, Blackgrass",[15]; [18],20
same,"Plant response rating, Blackgrass",[15]; [19],0
same,"Plant response rating, Blackgrass",[15]; [20],30
same,"Plant response rating, Blackgrass",[15]; [21],20
same,Blackgrass plant response rating,[15]; [22],30
same,Blackgrass plant response rating,[15]; [23],5
